These are literature values, as cited in patent US20130331402A1, “DOSING REGIMEN ASSOCIATED WITH LONG-ACTING INJECTABLE PALIPERIDONE ESTERS” (Janssen Pharmaceutica NV, priority 2009, published 2013).

For data set [1] the following is noted: depot intramuscular antipsychotics.
The conditions of data set [2]: background statement.
The mark [3] stands for this setting: oral typical antipsychotics, Table 1.
Setting [4] is: oral atypical antipsychotics, Table 2.

Where two headings read alike, the source gives them in different places.

Consider `O=c1[nH]c2ccccc2n1C1CCN(CCCC(c2ccc(F)cc2)c2ccc(F)cc2)CC1` [Pimozide], for which the “Terminal Half-life” value under setting [3] is 48 to 72 h.
On to `O=C(CCCN1CCC(O)(c2ccc(Cl)cc2)CC1)c1ccc(F)cc1` [Haloperidol], for which the “Terminal Half-life” value under setting [3] was 12 to 36 h.
With `O=C1NCCN1CCN1CCC(c2cn(-c3ccc(F)cc3)c3ccc(Cl)cc23)CC1` [Sertindole], the “Terminal Half-life” value under setting [4] is 70 h.
As for `CCN1CCCC1CNC(=O)c1cc(S(=O)(=O)CC)c(N)cc1OC` (stereo not drawn) [Amisulpride], the “Terminal Half-life” value under setting [4] was 12 h.
As to `CCCCCCCCCC(=O)OCCN1CCN(CC/C=C2/c3ccccc3Sc3ccc(Cl)cc32)CC1` [Zuclopenthixol decanoate], the “t1/2 (apparent terminal half-life after multiple dosing)” value in data set [1] was 456 h.
With `CCCCCCC(=O)OCCN1CCN(CCCN2c3ccccc3Sc3ccc(C(F)(F)F)cc32)CC1` [Fluphenazine enanthate], the “t1/2 (apparent terminal half-life after multiple dosing)” value in data set [1] is 96 h.
In the case of `CCCCCCCCCC(=O)OCCN1CCN(CC/C=C2\c3ccccc3Sc3ccc(Cl)cc32)CC1` [Clopenthixol decanoate], in data set [1], the “t1/2 (apparent terminal half-life after multiple dosing)” value was 456 h.
For `OCCN1CCN(CCCN2c3ccccc3Sc3ccc(Cl)cc32)CC1` [Perphenazine], under setting [3], the “Terminal Half-life” value was 8 to 21 h.
With `CCCCCCC(=O)OCCN1CCN(CCCN2c3ccccc3Sc3ccc(Cl)cc32)CC1` [Perphenazine enanthate], the “t1/2 (apparent terminal half-life after multiple dosing)” value in data set [1] was 96 to 140 h.
As to `CCCCCCCCCC(=O)OC1(c2ccc(Cl)cc2)CCN(CCCC(=O)c2ccc(F)cc2)CC1` [Haloperidol decanoate], the “t1/2 (apparent terminal half-life after multiple dosing)” value in data set [1] was 504 h.
As to `O=C1CCc2ccc(OCCCCN3CCN(c4cccc(Cl)c4Cl)CC3)cc2N1` [Aripiprazole], the “Terminal Half-life” value under setting [4] is 47 to 68 h.
On to `CN1CCN(C2=Nc3ccccc3Oc3ccc(Cl)cc32)CC1` [Loxapine], for which the “Terminal Half-life” value under setting [3] is 4 h.
For `OCCN1CCN(CCCN2c3ccccc3Sc3ccc(C(F)(F)F)cc32)CC1` [Fluphenazine], under setting [3], the “Terminal Half-life” value was 14 to 24 h.
For `CN1CCN(CCCN2c3ccccc3Sc3ccc(Cl)cc32)CC1` [Prochlorperazine], the “Terminal Half-life” value under setting [3] is 4 to 8 h.
Take `CSc1ccc2c(c1)N(CCC1CCCCN1C)c1ccccc1S2` (stereo not drawn) [Thioridazine]: the “Terminal Half-life” value under setting [3] was 9 to 30 h.
On to `CN1CCN(CCCN2c3ccccc3Sc3ccc(C(F)(F)F)cc32)CC1` [Trifluoperazine], for which the “Terminal Half-life” value under setting [3] is 10 to 20 h.
For `CCCCCCCCCCCCCCCC(=O)OC1CCCn2c1nc(C)c(CCN1CCC(c3noc4cc(F)ccc34)CC1)c2=O` (racemic) [paliperidone palmitate, (±)-3-[2-[4-(6-fluoro-1,2-benzisoxazol-3-yl)-1-piperidinyl]ethyl]-6,7,8,9-tetrahydro-2-methyl-4-oxo-4H-pyrido[1,2-c]pyrimidin-9-yl hexadecanoate], the water solubility result in data set [2] is reported as “extreme low water solubility”.
`CCc1c(C)[nH]c2c1C(=O)C(CN1CCOCC1)CC2` (stereo not drawn) [Molindone]: the “Terminal Half-life” value under setting [3] was 1.5 h.
Take `Cc1nc2n(c(=O)c1CCN1CCC(c3noc4cc(F)ccc34)CC1)CCCC2O` (stereo not drawn) [Paliperidone (9-hydroxy-risperidone), Paliperidone]: the “Terminal Half-life” value under setting [4] is 25 h.
As to `CCCCCCCCCC(=O)OCCN1CCN(CCCN2c3ccccc3Sc3ccc(C(F)(F)F)cc32)CC1` [Fluphenazine decanoate], the “t1/2 (apparent terminal half-life after multiple dosing)” value in data set [1] is 336 h.
With `CN1CCN(CC/C=C2/c3ccccc3Sc3ccc(S(=O)(=O)N(C)C)cc32)CC1` [Thiothixene], the “Terminal Half-life” value under setting [3] was 34 h.
As to `OCCN1CCN(CC/C=C2/c3ccccc3Sc3ccc(C(F)(F)F)cc32)CC1` [Flupenthixol], the “Terminal Half-life” value under setting [3] is 22 to 36 h.
For the compound `O=C1Cc2cc(CCN3CCN(c4nsc5ccccc45)CC3)c(Cl)cc2N1` [Ziprasidone], the “Terminal Half-life” value under setting [4] is 8 to 10 h.
On to `CN1CCN(C2=Nc3cc(Cl)ccc3Nc3ccccc32)CC1` [Clozapine], for which the “Terminal Half-life” value under setting [4] is 9 to 17 h.
In the case of `Cc1cc2c(s1)Nc1ccccc1N=C2N1CCN(C)CC1.O.O=C(O)c1cc2ccccc2c(Cc2c(O)c(C(=O)O)cc3ccccc23)c1O` [Olanzapine pamoate], in data set [1], the “t1/2 (apparent terminal half-life after multiple dosing)” value is 720 h.
As to `CCCCCCCCCCCCCCCC(=O)OCCC1CCN(CCCN2c3ccccc3Sc3ccc(S(=O)(=O)N(C)C)cc32)CC1` [Pipothiazine palmitate], the “t1/2 (apparent terminal half-life after multiple dosing)” value in data set [1] was 360 to 384 h.
As to `O=C1NCN(c2ccccc2)C12CCN(CCCC(c1ccc(F)cc1)c1ccc(F)cc1)CC2` [Fluspirilene], the “t1/2 (apparent terminal half-life after multiple dosing)” value in data set [1] was 170 h.
Take `CN(C)CCCN1c2ccccc2Sc2ccc(Cl)cc21` [Chlorpromazine]: the “Terminal Half-life” value under setting [3] was 8 to 35 h.
As for `OCCOCCN1CCN(C2=Nc3ccccc3Sc3ccccc32)CC1` [Quetiapine], the “Terminal Half-life” value under setting [4] is 6 h.
Consider `CCCCCCCCCC(=O)OCCN1CCN(CC/C=C2\c3ccccc3Sc3ccc(C(F)(F)F)cc32)CC1` [Flupenthixol decanoate], for which the “t1/2 (apparent terminal half-life after multiple dosing)” value in data set [1] is 408 h.
